This is an account of results in patent US9085559B2, “Triazine-aryl-bis-indoles and process for preparation thereof” (COUNCIL OF SCIENTIFIC & INDUSTRIAL RESEARCH, priority 2010, dated 2015).

The structures appear in SMILES notation. ≈ marks a conversion by molar mass, not a printed value. Where “and” joins values, the source holds several entries; their conditions need not be identical. Equal values may be shown once. Read-outs that look alike come from different tables or passages of the source.

For one data set, the system named is rodent. As to the kind of experiment: Prediction of acute oral LD50 from the IC50 by Halle's Registry of cytotoxicity (RC) prediction model. Conditions: log (LD50)=0.435×log (IC50)+0.625. An excerpt:
FIG. 8. IICT-TA67 is not toxic. To evaluate the cytotoxicity of test chemical (IICT-TA67) BALB/c 3T3 cell line was used for Neutral Red Uptake (NRU) cytotoxicity test. The test result has been used to determine IC50 for IICT-TA67 and acute oral toxicity (LD50) in rodent was predicted.
Basal cytotoxicity of IICT-TA67 has been performed to measure IC50 and thereafter predict in vivo acute oral LD50 values in rodent by using Halle's Registry of cytotoxicity (RC) prediction model: log (LD50)=0.435×log (IC50)+0.625 (Halle, 1998; Spielmann et al., 1999). Balb/c 3T3 Neutral Red Dye Uptake (NRU) cytotoxicity assay procedure was adopted (Liebsch & Spielmann 1995). In brief 3T3 cell were grown in 96 well microtitre plates and exposed to IICT-TA-67. After 48-hour incubation, the test material was removed and Neutral red (NR) solution was applied to the cells. […] The NRU was determined by using a microtitre plate reader to measure the optical density at 540 nm of the eluted dye in 96 well plate. A calculation of cell viability expressed as NRU was made for each concentration of the test chemical by using the mean NRU of 6 replicate values per test concentration. The cell viability value was compared with the mean NRU of all vehicle control values and relative cell viability was then expressed as percent of untreated vehicle control. […]

For data set [1], the system named is Vascular Cell Adhesion Molecule type 1 (VCAM-1). Kind of data set: Cell-ELISA, TNF-α induced VCAM-1 expression on HUVECs. It counts as cell-based. Conditions: Homo sapiens, HUVEC; HUVECs pretreated 2 hours, TNF-α 16 hours. The procedure: FIG. 4. Inhibition of TNF-α induced expression Intercellular Adhesion Molecule type 1 (ICAM-1) and Vascular Cell Adhesion Molecule type 1 (VCAM-1) on HUVECs by IICT-TA67. To determine the effect of IICT-TA67 on TNF-α induced cell adhesion molecules such as ICAM-1 and VCAM-1, HUVECs were pretreated with various concentrations of IICT-TA67 for 2 hours followed by induction with TNF-α for 16 hours. The cell surface expression of cell adhesion molecules was measured by ELISA.
Cell-ELISA was used for measuring the expression of ICAM-1 on surface of endothelial cells. Endothelial cells were incubated with or without IICT-TA67 at desired concentrations for the required period, followed by treatment with TNF-α (10 ng/ml) for 16 h for ICAM-1 and VCAM-1 expression. The cells were fixed with 1.0% glutaraldehyde. Non-specific binding of antibody was blocked by using skimmed milk (3.0% in PBS). Cells were incubated overnight at 4° C. with anti-ICAM-1 mAb anti-VCAM-1 antibody, diluted in blocking buffer, the cells were further washed with PBS and incubated with peroxidase-conjugated goat anti-mouse secondary Abs. […] Reaction was stopped by the addition of 2 N sulfuric acid and absorbance at 490 nm was measured using microplate reader (Spectramax 190, Molecular Devices, USA).
A general note: ELISA stands for enzyme-linked immunosorbent assay.

Data set [2] in a line: Pharmacokinetic study, oral and i.v. route. It counts as in vivo, swiss mice. Conditions: mice; for half-life: read-out: T ½ (converted). The protocol:
FIG. 6. Pharmacokinetics of IICT-TA67 through oral route. FIG. 7. Pharmacokinetics of IICT-TA67 through intravenous (i.v) route in mice. IICT-TA67 (20 mg/kg) was administered orally (or 10 mg/kg by i.v. route) as a fine suspension in 1% Gum acacia. Blood samples were drawn from retro-orbital plexus at designated times in pre-labeled heparinised tubes and centrifuged (3500 rpm×10 minutes) to obtain the plasma. Blood samples were collected at 0, 5, 15 and 30 min, and 1, 2, 4, 6, 8, 16 and 24 hrs post-administration after oral/iv route. HPLC determinations were done on Shimadzu chromatograph (Model: LC-10 Atvp equipped with a diode array detector). The Molecule ICT-TA67 was determined at 276 nm using RP-18 column (5 μm×25 cm). Mobile phase consisted of acetonitrile: water (55:45) with a flow rate of 1.0 ml/min.
Animals. Healthy swiss mice of both the sexes (25-30) were used. The animals were kept (3/cage) under controlled conditions (temp 26±2° C.; relative humidity 50±5%; 12 h light/dark cycle) and maintained on pelleted rodent diet (Ashirwad Industries Ltd. Chandigarh, India). Water was provided ad libitum. Institutional Animal Ethics committee approved the animal experiments. Animals were fasted for 16 hours before use.
Step 1: Dosing: IICT-TA67 (20 mg/kg) was administered orally (or 10 mg/kg by i.v.route) as a fine suspension in 1% Gum acacia. Blood samples were drawn from retro-orbital plexus at designated times in pre-labeled heparinised tubes and centrifuged (3500 rpm×10 minutes) to obtain the plasma. Blood samples were collected at 0, 5, 15 and 30 min, and 1, 2, 4, 6, 8, 16 and 24 hrs post-administration after oral/iv route.
Step 2: HPLC determinations: Aliquots of plasma were mixed with acetonitrile (1:2), vortexed for two minutes (2500 rpm) and centrifuge at 5000 rpm for 10 min. The organic layer was collected and evaporated to dryness using solvent evaporator (Model: SPD 111V, Thermo Electron Corporation, MA). The dried samples were reconstituted in mobile phase for HPLC analysis. In a similar manner samples were also prepared from aliquots of plasma collected from untreated animals which were spiked with molecule 67 (0.25 μg-10 μg/ml). […] Reproducibility of the method was defined by both intra-, and inter-day variance. The retention time of Mol. 67 was 10.688 min, at which no other interfering peak was observed. The lower limit of detection (LOD) was 11 ng/ml; limit of quantitation (LOQ) was 32 ng/ml; recovery was 90±2%.
HPLC determinations were done on Shimadzu chromatograph (Model: LC-10 Atvp equipped with a diode array detector). Molecule 67 was determined at 276 nm using RP-18 column (5 μm×25 cm). Mobile phase consisted of acetonitrile: water (55:45) with a flow rate of 1.0 ml/min.
Step 3: Calculating Bioavailability indices: A concentration-time curve for Molecule 67 was established and pharmacokinetic parameters AUC, Cmax, and tmax were determined by a non-compartmental analysis using TOPFIT software package. Absolute bioavailability was determined using the following formula: AUCoral×doseiv/AUCiv×Doseoral.

[3] abbreviates: both sexes, Swiss, mouse, plasma, iv, 10 mg/kg.
[4] abbreviates: both sexes, Swiss, mouse, plasma, oral, 20 mg/kg.

As usually defined, the IC50 is the point on the concentration scale where inhibition reaches its midpoint. The Tmax is the time at which the peak concentration occurs. Usually AUC stands for concentration integrated over time. A lower AUC goes with less exposure. By Cmax is commonly meant the peak of the concentration-time curve. As usually defined, the AUC(0-t) is exposure summed from dosing to a finite time, without extrapolation to infinity. Lower therefore signals less exposure. Broadly, the bioavailability is the share of a dose that reaches the circulation, judged against a reference dose that is usually intravenous. Consider `COc1ccc(C(c2[nH]c3ccccc3c2CC(=O)O)c2[nH]c3ccccc3c2CC(=O)O)cc1Oc1nc(NC2CC2)nc(NC2CC2)n1` [Compound 7, 2,2′-[2,2′-3-(4,6-bis-cyclopropylamino)-1,3,5-triazin-2-yl-oxy-4-methoxy-phenyl]-methylene-bis-(1H-indole-3,3-diyl)-diacetic acid], for which the “predicted acute oral LD50” value in the data set on rodent is given as 430 mg/kg body weight. Moreover, in data set [1], the concentration for half-maximal inhibition (IC50) was found to be 16.6 µg/mL (≈ 24.6 µM). In addition, the time to peak (Tmax) in data set [2] (setting [3]) is 0.167 h; in data set [2] (both sexes, Swiss, mouse, plasma, po, 20 mg/kg), 3 h; in data set [2] (both sexes, Swiss, mouse, plasma, po, 20 mg/kg, 20 mg/kg (Table 2)), 2 h. Further, the half-life was 0.93 h in data set [2] (both sexes, Swiss, mouse, plasma, iv, 10 mg/kg, i.v., 10 mg/kg) and 4.26 h in data set [2] (both sexes, Swiss, mouse, plasma, po, 20 mg/kg, oral, 20 mg/kg). Besides, the area under the curve (AUC) in data set [2] (setting [3]) amounted to 358 ng·h/mL; in data set [2] (setting [4]) it was 503 ng·h/mL. The Cmax was found to be 332 ng/mL in data set [2] (setting [3]) and 107 ng/mL in data set [2] (setting [4]). In data set [2] (setting [3]), the clearance is 466 mL/min and 466 mL/min/kg. Also, the AUC(0-t) came out at 358 ng·h/mL in data set [2] (both sexes, Swiss, mouse, plasma, iv, 10 mg/kg (Table 2)) and 503 ng·h/mL in data set [2] (both sexes, Swiss, mouse, plasma, oral, 20 mg/kg (Table 2)). Besides, the Vd in data set [2] (both sexes, Swiss, mouse, plasma, iv, i.v., 10 mg/kg, read-out: Vd) was 37.5 L and 37.5 L/kg; in data set [2] (oral, 20 mg/kg, listed as TA-67, 20 mg/kg), 474 L. Besides, the bioavailability in data set [2] (both sexes, Swiss, mouse, plasma, oral, AUCoral×doseiv/AUCiv×Doseoral, read-out: Absolute bioavailability (F)) worked out at 70.3%. Also, the “T ½” value in data set [2] (i.v., 10 mg/kg, listed as IICT-TA67, 10 mg/kg) stood at 1.5 h.
